Results: patent US10166218B2, “3-(1H-indol-2-yl)-1H-pyrazolo[3,4-C]pyridines and therapeutic uses thereof” (Samumed, LLC, priority 2015, dated 2019)

Legend:
Assay type in all cases: cell-based
SW480 colon cancer cells = assay: Cell viability assay (CellTiter-Blue) in SW480 colon cancer cells; details: Homo sapiens, 96 h, four days, CellTiter-Blue
Description: Representative compounds were screened using the following assay procedure to assess the effect on cell viability as described below.
Each compound was dissolved in DMSO as a 10 mM stock and used to prepare compound source plates. Serial dilution (1:3, 8-point dose-response curves from 10 μM to 0.0045 μM) and compound transfer was performed using the ECHO 550 (Labcyte, Sunnyvale, Calif.) into 96-well clear bottom, black-walled plates (Corning-Costar).
Approximately 2×10^3 SW480 colon cancer cells were seeded into each well and allowed to incubate in the presence or absence of compound for four days at 37° C./5% CO2. Eight replicates of DMSO-treated cells served as controls and cells treated with compound were performed in duplicate.
After incubation, 20 μL of CellTiter-Blue (Promega) was added to each well allowed to incubate for approximately 3 hours. This reagent was a buffered solution which contains resazurin, metabolically active cells were able to reduce rezarurin (blue) into resorufin (pink) which was highly fluorescent. This measured fluorescence was used as a readout for cell viability.
After incubation, the plates were read at Ex 560 nm Em 590 nm (Cytation 3, BioTek). Dose-response curves were generated and EC50 concentration values were calculated using non-linear regression curve fit in the GraphPad Prism (San Diego, Calif.) or Dotmatics' Studies Software (Bishops Stortford, UK). For EC50 of >10 μM, the percent inhibition at 10 μM is provided.

[1] = tested on: primary human fibroblasts derived from IPF patients (LL29 cells) treated with TGF-β1; α-smooth muscle actin (αSMA); assay: Inhibition of the fibrotic process: αSMA staining in TGF-β1 treated primary human fibroblasts from IPF patients (LL29 cells); details: Fibroblast, 96 h, TGF-β1 20 ng/mL, 4 days, % cells positive for αSMA
Description: Representative compounds were screened using primary human fibroblasts (derived from IPF patients) treated with TGF-β1 to determine their ability to inhibit the fibrotic process.
Primary human fibroblasts derived from IPF patients (LL29 cells) [^1Xiaoqiu Liu, et. al., “Fibrotic Lung Fibroblasts Show Blunted Inhibition by cAMP Due to Deficient cAMP Response Element-Binding Protein Phosphorylation”, Journal of Pharmacology and Experimental Therapeutics (2005), 315(2), 678-687; ^2Watts, K. L., et. al., “RhoA signaling modulates cyclin D1 expression in human lung fibroblasts; implications for idiopathic pulmonary fibrosis”, Respiratory Research (2006), 7(1), 88] were obtained from American Type Culture Collection (ATCC) and expanded in F12 medium supplemented with 15% Fetal Bovine Serum and Penicillin/Streptomycin.
Each compound was dissolved in DMSO as a 10 mM stock and used to prepare compound source plates. Serial dilution (1:2, 11-point dose-response curves from 10 μM to 1.87 nM) and compound transfer was performed using the ECHO 550 (Labcyte, Sunnyvale, Calif.) into 384-well clear bottom assay plates (Greiner Bio-One) with appropriate DMSO backfill for a final DMSO concentration of 0.1%. LL29 cells are plated at 1,500 cells/well in 80 μL/well F12 medium supplemented with 1% Fetal Bovine Serum. One hour after addition of the cells, TGF-β1 (Peprotech; 20 ng/mL) was added to the plates to induce fibrosis (ref. 1 and 2 above). Wells treated with TGF-β1 and containing DMSO were used as controls. Cells were incubated at 37° C. and 5% CO2 for 4 days. Following incubation for 4 days, SYTOX green nucleic acid stain (Life Technologies [Thermo Fisher Scientific]) was added to the wells at a final concentration of 1 μM and incubated at room temperature for 30 min. Cells were then fixed using 4% formaldehyde (Electron Microscopy Sciences), washed 3 times with PBS followed by blocking and permeabilization using 3% Bovine Serum Albumin (BSA; Sigma) and 0.3% Triton X-100 (Sigma) in PBS. Cells were then stained with antibody specific to α-smooth muscle actin (αSMA; Abcam) (ref. 1 and 2 above) in 3% Bovine Serum Albumin (BSA; Sigma) and 0.3% Triton X-100 (Sigma) in PBS, and incubated overnight at 4° C. Cells were then washed 3 times with PBS, followed by incubation with Alexa Flor-647 conjugated secondary antibody (Life Technologies [Thermo Fisher Scientific]) and DAPI at room temperature for 1 hour. Cells were then washed 3 times with PBS and plates were sealed for imaging. αSMA staining was imaged by excitation at 630 nm and emission at 665 nm and quantified using the Compartmental Analysis program on the CellInsight CX5 (Thermo Scientific). Dead or apoptotic cells were excluded from analysis based on positive SYTOX green staining. % of total cells positive for αSMA were counted in each well and normalized to the average of 11 wells treated with TGF-β1 on the same plate using Dotmatics' Studies Software. The normalized averages (fold change over untreated) of 3 replicate wells for each compound concentration were used to create dose-responses curves and EC50 values were calculated using non-linear regression curve fit in the Dotmatics' Studies Software. For EC50 of >10 μM, the percent inhibition at 10 μM is provided.

IL-6 (THP-1 cells) = assay: Inhibition of IL-6 in LPS-stimulated THP-1 human monocyte cells (HTRF); details: inhibition of IL-6 in LPS-stimulated THP-1 cells, HTRF, 10-point dose-response starting from 10 μM
Description: Human monocyte cell line (THP-1 cells; Catalog # TIB-202, ATCC, Manassas, Va.) were cultured in Roswell Park Memorial Institute (RPMI) 1640 Medium (Catalog #21870-100, Buffalo, N.Y.) with 1% L-glutamine, 1% HEPES, 1% Sodium Pyruvate, 2% Sodium Bicarbonate supplemented with 100 units/mL penicillin, 50 μg/mL streptomycin, 2-mercaptoethanol (0.05 mM) [basal medium] and 10% fetal bovine serum (Catalog #16140089, Life Technologies, Carlsbad, Calif.) at 37° C. and 5% CO2.
THP-1 cells were cultured in basal media with 1% FBS for 24 hours before the start of the assay. Each compound was dissolved in DMSO as a 10 mM stock and used to prepare compound source plates. Serial dilution (1:3, 10-point dose-response curves starting from 10 μM) and compound transfer was performed using the ECHO 550 (Labcyte, Sunnyvale, Calif.) into 384-well white low volume assay plates (Greiner Bio-One) with appropriate DMSO backfill for a final DMSO concentration of 0.1%. THP-1 cells were plated at 5000 cells/well in the 384-well plates and incubated at 37° C. for 2 h. 500 ng/mL of LPS was added after 2 hours and cells were incubated for another 22 hours at 37° C. Plates were spun in a centrifuge for 1 minute at […] and a mixture of anti-IL6 XL665, and anti-IL6 Cryptate diluted in reconstitution buffer (Cisbio Inc.) was added to each well. Following incubation for 3 hrs at room temperature, Homogeneous Time-Resolved Fluorescence (HTRF) was measured using the Envision (Perkin Elmer) at 665 nm and […]. The ratio of fluorescence at 665 nm to 620 nm was used as a readout for IL6 quantification. All samples were processed in duplicate. Readings were normalized to DMSO treated cells and normalized activities were utilized for EC50 calculations using the dose-response log (inhibitor) vs. response-variable slope (four parameters) nonlinear regression feature available in GraphPad Prism 5.0 (or Dotmatics). For EC50 of >10 μM, the percent inhibition at 10 μM is provided.

[2] = tested on: Wnt activity (Sp5-Luc reporter, TCF/LEF binding sites) in SW480 colon carcinoma cells; assay: Screening assay for Wnt activity: Sp5-Luc reporter gene assay in stably transduced SW480 cells; details: Homo sapiens, overnight incubation
Description: The screening assay for Wnt activity is described as follows. Reporter cell lines can be generated by stably transducing cancer cell lines (e.g., colon cancer) or primary cells (e.g., IEC-6 intestinal cells) with a lentiviral construct that includes a Wnt-responsive promoter driving expression of the firefly luciferase gene.
SW480 colon carcinoma cells were transduced with a lentiviral vector expressing luciferase with a human Sp5 promoter consisting of a sequence of eight TCF/LEF binding sites. SW480 cells stably expressing the Sp5-Luc reporter gene and a hygromycin resistance gene were selected by treatment with 150 μg/mL of hygromycin for 7 days. These stably transduced SW480 cells were expanded in cell culture and used for all further screening activities. Each compound was dissolved in DMSO as a 10 mM stock and used to prepare compound source plates. Serial dilution (1:3, 10-point dose-response curves starting from 10 μM) and compound transfer was performed using the ECHO 550 (Labcyte, Sunnyvale, Calif.) into 384-well white solid bottom assay plates (Greiner Bio-One) with appropriate DMSO backfill for a final DMSO concentration of 0.1%. For Sp5-Luc reporter gene assays, the cells were plated at 4,000 cells/well in 384-well plates with medium containing 1% fetal bovine serum and incubated overnight at 37° C. and 5% CO2. Following incubation, 20 μl of BrightGlo luminescence reagent (Promega) was added to each well of the 384-well assay plates. The plates were placed on an orbital shaker for 2 min and then luminescence was quantified using the Envision (Perkin Elmer) plate reader. Readings were normalized to DMSO only treated cells, and normalized activities were utilized for EC50 calculations using the dose-response log (inhibitor) vs. response-variable slope (four parameters) nonlinear regression feature available in GraphPad Prism 5.0 (or Dotmatics). For EC50 of >10 μM, the percent inhibition at 10 μM is provided.

Structure (SMILES) | EC50 (SW480 colon cancer cells) [nM] | EC50 (IL-6 (THP-1 cells)) [nM] | EC50 [2] [nM] | EC50 [1] [nM]
CN(C)Cc1cncc(-c2cc3c(-c4cc5c(N6CCN(C)CC6)cccc5[nH]4)n[nH]c3cn2)c1 [Compound 237, N,N-Dimethyl-1-(5-(3-(4-(4-methylpiperazin-1-yl)-1H-indol-2-yl)-1H-pyrazolo[3,4-c]pyridin-5-yl)pyridin-3-yl)methanamine] | 3800 | 3610 | 3400 | 7320
c1ccc(-c2cc3c(-c4cc5c(N6CCCCC6)cccc5[nH]4)n[nH]c3cn2)nc1 [Compound 196, 3-(4-(Piperidin-1-yl)-1H-indol-2-yl)-5-(pyridin-2-yl)-1H-pyrazolo[3,4-c]pyridine] | 6060 | 8780 | 3420 | 1160
c1ccc(CNCc2cncc(-c3cc4c(-c5cc6c(-c7cccs7)cccc6[nH]5)n[nH]c4cn3)c2)cc1 [Compound 360, N-Benzyl-1-(5-(3-(4-(thiophen-2-yl)-1H-indol-2-yl)-1H-pyrazolo[3,4-c]pyridin-5-yl)pyridin-3-yl)methanamine] | 3470 | 1430 | 1780 | 373
CC(C)CC(=O)Nc1cncc(-c2cc3c(-c4cc5c(-c6ccncc6)cccc5[nH]4)n[nH]c3cn2)c1 [Compound 114, 3-Methyl-N-(5-(3-(4-(pyridin-4-yl)-1H-indol-2-yl)-1H-pyrazolo[3,4-c]pyridin-5-yl)pyridin-3-yl)butanamide] | 6980 | 1080 | 469 | 33
CCCC(=O)Nc1cncc(-c2cc3c(-c4cc5c(-c6cccs6)cccc5[nH]4)n[nH]c3cn2)c1 [Compound 353, N-(5-(3-(4-(Thiophen-2-yl)-1H-indol-2-yl)-1H-pyrazolo[3,4-c]pyridin-5-yl)pyridin-3-yl)butyramide] | 4010 | 1890 | 4910 | 56

Continued, in another order:

EC50 (SW480 colon cancer cells) [nM] | EC50 (IL-6 (THP-1 cells)) [nM] | EC50 [2] [nM] | Structure (SMILES) | EC50 [1] [nM]
938 | 2490 | 550 | O=C(Nc1cncc(-c2cc3c(-c4cc5c(-c6ccccn6)cccc5[nH]4)n[nH]c3cn2)c1)C1CCCCC1 [Compound 163, N-(5-(3-(4-(Pyridin-2-yl)-1H-indol-2-yl)-1H-pyrazolo[3,4-c]pyridin-5-yl)pyridin-3-yl)cyclohexanecarboxamide] | 81
2250 | 1030 | 1340 | CS(=O)(=O)NCc1cc(F)cc(-c2cccc3[nH]c(-c4n[nH]c5cnc(-c6cncc(CNCC7CCCC7)c6)cc45)cc23)c1 [Compound 501, N-(3-(2-(5-(5-(((Cyclopentylmethyl)amino)methyl)pyridin-3-yl)-1H-pyrazolo[3,4-c]pyridin-3-yl)-1H-indol-4-yl)-5-fluorobenzyl)methanesulfonamide] | 463
2140 | 3230 | 1050 | CCCCC(=O)Nc1cncc(-c2cc3c(-c4cc5c(N6CCN(C)CC6)cccc5[nH]4)n[nH]c3cn2)c1 [Compound 243, N-(5-(3-(4-(4-Methylpiperazin-1-yl)-H-indol-2-yl)-1H-pyrazolo[3,4-c]pyridin-5-yl)pyridin-3-yl)pentanamide] | 1010
3130 | 1940 | 1040 | CN1CCN(c2cccc3[nH]c(-c4n[nH]c5cnc(-c6cncc(NC(=O)Cc7ccccc7)c6)cc45)cc23)CC1 [Compound 234, N-(5-(3-(4-(4-Methylpiperazin-1-yl)-H-indol-2-yl)-1H-pyrazolo[3,4-c]pyridin-5-yl)pyridin-3-yl)-2-phenylacetamide] | 1250
3420 | 7120 | 911 | CCC(=O)Nc1cncc(-c2cc3c(-c4cc5c(-c6cccs6)cccc5[nH]4)n[nH]c3cn2)c1 [Compound 337, N-(5-(3-(4-(Thiophen-2-yl)-1H-indol-2-yl)-1H-pyrazolo[3,4-c]pyridin-5-yl)pyridin-3-yl)propionamide] | 387
